From US20250170267A1, “ANTIBODY-DRUG CONJUGATE PRECURSOR AND INTERMEDIATE FOR SYNTHESIS THEREOF” (UBE Corporation, priority 2022, published 2025)
pIC50: −log10 of the molar value. Numbered stars: 1 amine (or outer) side, 2 acyl side, 3 side chain; on linkers, the order of the positions; unused ones are H or OH. Square brackets hold non-standard residues; d marks the D form. Peptide text beside a SMILES is read from it. * marks the point of attachment. βAla(2S-maleimido) = O=C1C=CC(=O)N1[C@@H](CN[*:1])C(=O)[*:2]; Dolaproine = CO[C@@H]([C@@H]1CCCN1)[C@@H](C)C(=O)O; Dil = CC[C@H](C)[C@H](NC)[C@@H](CC(=O)O)OC; Propanoyl(3-PO3H2) = O=C(CCP(=O)(O)O)*; PABC = O=C(OCc1ccc(N[*:1])cc1)[*:2]; X1 = C[C@@H](N*)[C@@H](O)c1ccccc1; hSer(lactone) = O=C1OCC[C@@H]1N*; Cit = NC(=O)NCCC[C@H](N)C(=O)O; PEG4 = NCCOCCOCCOCCOCCC(=O)O; NMeV = CN[C@H](C(=O)O)C(C)C

Tests used:
[1] = Retention time in HPLC (index of hydrophilicity); type: physicochemical; settings: BEH C18, 0.1% formic acid/acetonitrile gradient, 40° C.
Experimental: As an index of hydrophilicity of the Examples, the retention time (RT) in HPLC analysis was measured, and compared.
Device: LCMS2020 system Shimadzu Corporation
Column: Acquity UPLC (registered trademark) BEH C18 (2.1×50 mm, 1.7 μm)_Waters
Eluent: Solution A: 0.1% aqueous solution of formic acid, Solution B: 0.1% solution of formic acid in acetonitrile

human liver Cathepsin B = target: T1, human liver Cathepsin B (Homo sapiens, UniProt P07858); test: Metabolism test using human liver Cathepsin B; type: in vitro ADME; settings: 37° C., 24 hours, released drug, LC-MS/MS
T1 construct: human liver Cathepsin B (manufactured by Sigma-Aldrich Co. LLC, Cat No. C8571 25 μg/vial); purchased Sigma-Aldrich Co. LLC C8571; host or cells: human liver
Experimental: To human liver Cathepsin B (manufactured by Sigma-Aldrich Co. LLC, Cat No. C8571 25 μg/vial)(corresponding to 400 Unit/mL)(5 μL), X10 Catabolic Buffer (manufactured by SEKISUI-Xenotech, LLC., K5200)(10 μL), 2.5 mM Bovine Serum Albumin (manufactured by FUJIFILM Wako Pure Chemical Corporation, Cat No. 012-15093)(5 μL), and distilled water (manufactured by FUJIFILM Wako Pure Chemical Corporation, for HPLC)(55 μL) was added 1.2 μM test compound (antibody-drug conjugate prepared in ADC Production examples)(25 μL) dissolved in PBS to prepare a reaction solution. After the reaction solution was incubated at 37° C. for 24 hours, “an antitumor drug molecule or an analog thereof, or a derivative thereof” released from the antibody-drug conjugate into the reaction solution was quantified by LC-MS/MS (high performance liquid chromatography/mass spectrometer system) under the following conditions. LC-MS/MS analysis conditions
(§1) LC: LC20 or LC30 HPLC system manufactured by Shimadzu Corporation
(§2) Column: Phenomenex Kinetex C18 (50×2.1 mm, 2.6 μm)
(§3) Column temperature: 40° C.
(§4) Mobile phase A: 0.1% aqueous solution of formic acid, Mobile phase B: 0.1% solution of formic acid in a mixture of 50% acetonitrile/methanol
(§5) Mode: Positive or Negative
(§6) The release rate (%) of drug was calculated by the following equation.

human liver lysosome = test: Metabolism test using human liver lysosomal fraction; type: in vitro ADME; settings: 37° C., 24 hours, released drug, LC-MS/MS
Experimental: To a reaction composition solution (X10 Catabolic Buffer (manufactured by SEKISUI-Xenotech, LLC., K5200))(60 μL) in which human liver lysosome (manufactured by SEKISUI-Xenotech, LLC., Cat No. H610.L 2.5 mg/mL)(corresponding to 0.125 mg of protein) was suspended and distilled water (manufactured by FUJIFILM Wako Pure Chemical Corporation, for HPLC)(10 μL) was added 1.2 μM test compound (antibody-drug conjugate produced in ADC Production examples)(25 μL) dissolved in PBS to prepare a reaction solution. After the reaction solution was incubated at 37° C. for 24 hours, “an antitumor drug molecule or an analog thereof, or a derivative thereof” released from the antibody-drug conjugate into the reaction solution was quantified by LC-MS/MS (high performance liquid chromatography/mass spectrometer system) under the following conditions. LC-MS/MS analysis conditions
as §1, §2, §3, §4, §5, §6

[2] = Pharmacokinetic test (serum trastuzumab residual rate); type: in vivo; settings: female BALB/c mouse, intravenous; 3 days vs 5 minutes after administration
Source text: After a prescribed time period, the blood was collected from the jugular vein or abdominal vein, and centrifuged to prepare a serum. The resulting serum was cryopreserved until the measurement.

human topoisomerase I = target: T2, human topoisomerase I (Homo sapiens, UniProt P11387); test: Topoisomerase I activity inhibition test; type: biochemical; settings: supercoiled plasmid DNA, 37° C., 60 minutes
T2 construct: purchased Sigma T9069
T2 sequence (P11387 1-765): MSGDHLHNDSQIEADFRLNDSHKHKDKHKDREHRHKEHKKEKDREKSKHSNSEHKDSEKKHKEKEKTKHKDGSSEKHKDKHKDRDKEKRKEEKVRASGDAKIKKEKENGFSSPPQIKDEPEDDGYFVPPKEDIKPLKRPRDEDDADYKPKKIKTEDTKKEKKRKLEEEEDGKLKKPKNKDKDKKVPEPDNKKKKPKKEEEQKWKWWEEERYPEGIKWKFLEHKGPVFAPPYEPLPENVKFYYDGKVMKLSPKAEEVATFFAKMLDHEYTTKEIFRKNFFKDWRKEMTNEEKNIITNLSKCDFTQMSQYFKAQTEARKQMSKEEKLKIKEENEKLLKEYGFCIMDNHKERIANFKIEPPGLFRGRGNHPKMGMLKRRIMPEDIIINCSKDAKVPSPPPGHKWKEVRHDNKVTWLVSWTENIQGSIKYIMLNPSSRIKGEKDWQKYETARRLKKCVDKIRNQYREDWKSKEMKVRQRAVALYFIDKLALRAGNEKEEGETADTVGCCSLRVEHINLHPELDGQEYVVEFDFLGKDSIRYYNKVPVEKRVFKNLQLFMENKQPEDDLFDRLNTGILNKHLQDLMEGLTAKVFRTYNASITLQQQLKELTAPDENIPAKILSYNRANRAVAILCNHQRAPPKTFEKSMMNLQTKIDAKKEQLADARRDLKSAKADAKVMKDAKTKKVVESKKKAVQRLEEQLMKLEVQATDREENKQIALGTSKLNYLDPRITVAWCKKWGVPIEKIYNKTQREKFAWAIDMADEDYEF
Experimental: For measuring topoisomerase I activity inhibitory actions, Human DNA Topoisomerase I Assay Kit (manufactured by ProFoldin, HRA100K) was used. A human topoisomerase I (manufactured by Sigma, T9069) was added to a Tris-HCl buffer containing KCl, DTT, MgCl2, EDTA, and BSA to prepare a reaction solution. The reaction solution (35.2 μL) and a test compound solution (4.4 μL) prepared by an aqueous solution containing 10% DMSO were mixed in a 1.5 mL microtube, and the resulting mixture was reacted at 37° C. for 10 minutes. Subsequently, a supercoiled plasmid DNA (4.4 μL) was added thereto, and the resulting mixture was reacted at 37° C. for 60 minutes. After the reaction, the solution was added to a 96 well plate (manufactured by Corning Inc., 3904) at 40 μL/well, and a Dye H19 solution (250 μL) diluted 10 times with the buffer included with the kit was added thereto. A microplate reader (Infinite F500, manufactured by TECAN) was used to measure the fluorescence intensity (excitation wavelength: 485 nm, detection wavelength: 535 nm) of each well.
The topoisomerase I activity inhibition rate (%) was calculated by the following equation.

In the case of C=C1C[C@@H]2CC[C@@]34C[C@H]5O[C@H]6[C@@H](O3)[C@H]3O[C@H](CC[C@@H]3O[C@H]6[C@H]5O4)CC(=O)C[C@@H]3[C@@H](OC)[C@@H](C[C@@H](CNC(=O)OCc4ccc(NC(=O)[C@H](CCCNC(N)=O)NC(=O)[C@@H](NC(=O)[C@H](CC(=O)N[C@H]5CCOC5=O)NC(=O)CCOCCOCCOCCOCCNC(=O)[C@H](CNC(=O)CCP(=O)(O)O)N5C(=O)C=CC5=O)C(C)C)cc4)OP(=O)(O)O)O[C@H]3C[C@H]3O[C@@H](CC[C@@H]1O2)C[C@@H](C)C3=C [Example 26], the “Retention time in HPLC measurement” value ([1]; Table 6 (eribulin precursors)) was 0.91 min.
In the case of CC[C@H](C)[C@@H]([C@@H](CC(=O)N1CCC[C@H]1[C@H](OC)[C@@H](C)C(=O)N[C@H](C)[C@@H](O)c1ccccc1)OC)N(C)C(=O)[C@@H](NC(=O)[C@H](C(C)C)N(C)C(=O)OCc1ccc(NC(=O)[C@H](CCCNC(N)=O)NC(=O)[C@@H](NC(=O)[C@H](CC(=O)N[C@H]2CCOC2=O)NC(=O)CCOCCOCCOCCOCCNC(=O)[C@H](CNC(=O)CCP(=O)(O)O)N2C(=O)C=CC2=O)C(C)C)cc1)C(C)C [Example 8] ({Propanoyl(3-PO3H2)}-[βAla(2S-maleimido)][PEG4]D(hSer(lactone))V[Cit][PABC][NMeV]V[Dil][Dolaproine]-X1), the “Release rate (%) of drug from ADC” value (human liver Cathepsin B) was 41%, the “Release rate (%) of drug from ADC” value (human liver lysosome) was 60% and the “Retention time in HPLC measurement” value ([1]; Table 5 (MMAE-type precursors)) was 1.03 min.
With C=C1C[C@@H]2CC[C@@]34C[C@H]5O[C@H]6[C@@H](O3)[C@H]3O[C@H](CC[C@@H]3O[C@H]6[C@H]5O4)CC(=O)C[C@@H]3[C@@H](OC)[C@@H](C[C@H](O)CNC(=O)OCc4ccc(NC(=O)[C@H](CCCNC(N)=O)NC(=O)[C@@H](NC(=O)[C@H](CC(=O)N[C@H]5CCOC5=O)NC(=O)CN(C)CCNC(=O)CCOCCOCCOCCOCCNC(=O)[C@H](CNC(=O)CCP(=O)(O)O)N5C(=O)C=CC5=O)C(C)C)cc4)O[C@H]3C[C@H]3O[C@@H](CC[C@@H]1O2)C[C@@H](C)C3=C [Example 16] the “Release rate (%) of drug from ADC” value (human liver Cathepsin B) was 62%, the “Release rate (%) of drug from ADC” value (human liver lysosome) was 72% and the “Retention time in HPLC measurement” value ([1]; Table 6 (eribulin precursors)) was 0.97 min. The “Serum trastuzumab residual rate after 3 days from administration (%)” value [2] was 64%.
In the case of CC[C@@]1(O)C(=O)OCc2c1cc1n(c2=O)Cc2c-1nc1cc(F)c(C)c3c1c2[C@@H](NC(=O)Cc1ccc(N)cc1)CC3 [Example U-007], the pIC50 (human topoisomerase I) was no less than 4.82.
For CC[C@H](C)[C@@H]([C@@H](CC(=O)N1CCC[C@H]1[C@H](OC)[C@@H](C)C(=O)N[C@H](C)[C@@H](OP(=O)(O)OCc1ccc(NC(=O)[C@H](CCCNC(N)=O)NC(=O)[C@@H](NC(=O)[C@H](CC(=O)N[C@H]2CCOC2=O)NC(=O)CCOCCOCCOCCOCCNC(=O)[C@H](CNC(=O)CCP(=O)(O)O)N2C(=O)C=CC2=O)C(C)C)cc1)c1ccccc1)OC)N(C)C(=O)[C@@H](NC(=O)[C@H](C(C)C)N(C)C)C(C)C [Example 3], the “Retention time in HPLC measurement” value ([1]; Table 5 (MMAE-type precursors)) was 0.70 min.
Work on CC[C@@]1(O)C(=O)OCc2c1cc1n(c2=O)Cc2c-1nc1cc(F)c(C)c3c1c2[C@@H](NC(=O)c1ccc(N)cc1)CC3 [Example U-005] yielded a pIC50 (human topoisomerase I) of no less than 4.82.
In the case of CC[C@@]1(O)C(=O)OCc2c1cc1n(c2=O)Cc2c-1nc1cc(F)c(C)c3c1c2[C@@H](NC(=O)CCO)CC3 [Example U-002], the pIC50 (human topoisomerase I) was no less than 4.82.
